For 20 molecules, IC50 results are on record in ChEMBL document CHEMBL1136490, “Synthesis of non-immunosuppressive cyclophilin-Binding cyclosporin A derivatives as potential anti-HIV-1 drugs” (Bioorg Med Chem Lett, 2003).

Assay [1] addresses Peptidyl-prolyl cis-trans isomerase A (Homo sapiens, UniProt P62937). The assay is described as follows: Immunosuppressive activity was measured by inhibition of the IL-2 production in Jurkat cells. The class given is functional, cell-based.
Assay [2] addresses Human immunodeficiency virus type 1 reverse transcriptase (Human immunodeficiency virus 1, UniProt Q72547). The assay is described as follows: In vitro inhibitory activity against HIV-1 RT in CEM4 cell line. The class given is cell-based.

Chain of Peptidyl-prolyl cis-trans isomerase A (P62937 whole entry): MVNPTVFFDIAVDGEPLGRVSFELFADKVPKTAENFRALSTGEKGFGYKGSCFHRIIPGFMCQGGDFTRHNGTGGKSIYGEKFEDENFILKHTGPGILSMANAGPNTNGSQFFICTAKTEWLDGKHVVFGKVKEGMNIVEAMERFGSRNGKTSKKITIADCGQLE

For orientation: IC50 means the midpoint of a concentration-inhibition curve. Read a low IC50 as greater potency in that assay. With `C/C=C/C[C@@H](C)[C@@H](O)[C@H]1C(=O)N[C@@H](CC)C(=O)N(C)[C@H](SC)C(=O)N(C)[C@@H](CC(C)C)C(=O)N[C@@H](C(C)C)C(=O)N(C)[C@@H](CC(C)C)C(=O)N[C@@H](C)C(=O)N[C@H](C)C(=O)N(C)[C@@H](CC(C)C)C(=O)N(C)[C@@H](CC(C)C)C(=O)N(C)[C@@H](C(C)C)C(=O)N1C`, the results for the IC50 in assay [1] and in assay [2] were 3 nM and 65.5 nM, respectively.

Molecule `C/C=C/C[C@@H](C)[C@@H](O)C1C(=O)N[C@@H](CC)C(=O)N(C)[C@H](CO)C(=O)N(C)[C@@H](CC(C)(C)O)C(=O)N[C@@H](C(C)C)C(=O)N(C)[C@@H](CC(C)C)C(=O)N[C@@H](C)C(=O)N[C@H](C)C(=O)N(C)[C@@H](CC(C)C)C(=O)N(C)[C@@H](CC(C)C)C(=O)N(C)[C@@H](C(C)C)C(=O)N1C` (stereo not given in full) showed an IC50 in assay [2] of 95 nM.

For `C/C=C/C[C@@H](C)[C@@H](O)[C@H]1C(=O)N[C@@H](CC)C(=O)N(C)[C@H](SCCN(C)C)C(=O)N(C)[C@@H](CC(C)C)C(=O)N[C@@H](C(C)C)C(=O)N(C)[C@@H](CC(C)C)C(=O)N[C@@H](C)C(=O)N[C@H](C)C(=O)N(C)[C@@H](CC(C)C)C(=O)N(C)[C@@H](CC(C)C)C(=O)N(C)[C@@H](C(C)C)C(=O)N1C`, the results for the half-maximal inhibitory concentration (IC50) in assay [1] and in assay [2] were 47 nM and 35 nM, respectively.

On to `C/C=C/C[C@@H](C)[C@@H](O)[C@H]1C(=O)N[C@@H](CC)C(=O)N(C)[C@H](SCCN2CCCCC2)C(=O)N(C)[C@@H](CC(C)C)C(=O)N[C@@H](C(C)C)C(=O)N(C)[C@@H](CC(C)C)C(=O)N[C@@H](C)C(=O)N[C@H](C)C(=O)N(C)[C@@H](CC(C)C)C(=O)N(C)[C@@H](CC(C)C)C(=O)N(C)[C@@H](C(C)C)C(=O)N1C`, for which the IC50 in assay [1] is 97 nM; in assay [2] it was 72 nM.

`C/C=C/C[C@@H](C)[C@@H](O)[C@H]1C(=O)N[C@@H](CC)C(=O)N(C)[C@H](SCCN2CCOCC2)C(=O)N(C)[C@@H](CC(C)C)C(=O)N[C@@H](C(C)C)C(=O)N(C)[C@@H](CC(C)C)C(=O)N[C@@H](C)C(=O)N[C@H](C)C(=O)N(C)[C@@H](CC(C)C)C(=O)N(C)[C@@H](CC(C)C)C(=O)N(C)[C@@H](C(C)C)C(=O)N1C`: the results for the IC50 in assay [1] and in assay [2] were 128 nM and 101 nM, respectively.

Consider `C/C=C/C[C@@H](C)[C@@H](O)[C@H]1C(=O)N[C@@H](CC)C(=O)N(C)[C@H](SC)C(=O)N(C)[C@@H](CC(C)(C)O)C(=O)N[C@@H](C(C)C)C(=O)N(C)[C@@H](CC(C)C)C(=O)N[C@@H](C)C(=O)N[C@H](C)C(=O)N(C)[C@@H](CC(C)C)C(=O)N(C)[C@@H](CC(C)C)C(=O)N(C)[C@@H](C(C)C)C(=O)N1C`, for which the IC50 in assay [1] was found to be 110 nM; in assay [2], 84 nM.

Regarding `C/C=C/C[C@@H](C)[C@@H](O)[C@H]1C(=O)N[C@@H](CC)C(=O)N(C)[C@H](SCCN(C)C(C)(C)C)C(=O)N(C)[C@@H](CC(C)(C)O)C(=O)N[C@@H](C(C)C)C(=O)N(C)[C@@H](CC(C)C)C(=O)N[C@@H](C)C(=O)N[C@H](C)C(=O)N(C)[C@@H](CC(C)C)C(=O)N(C)[C@@H](CC(C)C)C(=O)N(C)[C@@H](C(C)C)C(=O)N1C`, the IC50 in assay [1] came out at 1570 nM; in assay [2], 43 nM.

Regarding `C/C=C/C[C@@H](C)[C@@H](O)[C@H]1C(=O)N[C@@H](CC)C(=O)N(C)[C@H](SCCN(C)C(C)C)C(=O)N(C)[C@@H](CC(C)C)C(=O)N[C@@H](C(C)C)C(=O)N(C)[C@@H](CC(C)C)C(=O)N[C@@H](C)C(=O)N[C@H](C)C(=O)N(C)[C@@H](CC(C)C)C(=O)N(C)[C@@H](CC(C)C)C(=O)N(C)[C@@H](C(C)C)C(=O)N1C`, the half-inhibitory concentration (IC50) came out at 61 nM in assay [1] and 19.5 nM in assay [2].

Take `C/C=C/C[C@@H](C)[C@@H](O)[C@H]1C(=O)N[C@@H](CC)C(=O)N(C)CC(=O)N(C)[C@@H](C[C@@H](C)CC)C(=O)N[C@@H](C(C)C)C(=O)N(C)[C@@H](CC(C)C)C(=O)N[C@@H](C)C(=O)N[C@H](C)C(=O)N(C)[C@@H](CC(C)C)C(=O)N(C)[C@@H](CC(C)C)C(=O)N(C)[C@@H](C(C)C)C(=O)N1C`: the IC50 in assay [1] came to 934 nM; in assay [2], 293 nM.

As for `C/C=C/C[C@@H](C)[C@@H](O)[C@H]1C(=O)N[C@@H](CC)C(=O)N(C)[C@H](SCCN(C)C(C)(C)C)C(=O)N(C)[C@@H](CC(C)C)C(=O)N[C@@H](C(C)C)C(=O)N(C)[C@@H](CC(C)C)C(=O)N[C@@H](C)C(=O)N[C@H](C)C(=O)N(C)[C@@H](CC(C)C)C(=O)N(C)[C@@H](CC(C)C)C(=O)N(C)[C@@H](C(C)C)C(=O)N1C`, the IC50 in assay [1] is 277 nM; in assay [2] it was 24 nM.

Molecule `C/C=C/C[C@@H](C)[C@@H](O)[C@H]1C(=O)N[C@@H](CC)C(=O)N(C)CC(=O)N(C)[C@@H](CC(C)(C)O)C(=O)N[C@@H](C(C)C)C(=O)N(C)[C@@H](CC(C)C)C(=O)N[C@@H](C)C(=O)N[C@H](C)C(=O)N(C)[C@@H](CC(C)C)C(=O)N(C)[C@@H](CC(C)C)C(=O)N(C)[C@@H](C(C)C)C(=O)N1C` gave an IC50 in assay [1] of 166 nM. That is a sub-micromolar value.

Regarding `C/C=C/C[C@@H](C)[C@@H](O)[C@H]1C(=O)N[C@@H](CC)C(=O)N(C)[C@H](SCCO)C(=O)N(C)[C@@H](CC(C)(C)O)C(=O)N[C@@H](C(C)C)C(=O)N(C)[C@@H](CC(C)C)C(=O)N[C@@H](C)C(=O)N[C@H](C)C(=O)N(C)[C@@H](CC(C)C)C(=O)N(C)[C@@H](CC(C)C)C(=O)N(C)[C@@H](C(C)C)C(=O)N1C`, the results for the IC50 in assay [1] and in assay [2] were 959 nM and 80 nM, respectively.

For the molecule `C/C=C/C[C@@H](C)[C@@H](O)[C@H]1C(=O)N[C@@H](CC)C(=O)N(C)[C@H](SCCN(CC)CC)C(=O)N(C)[C@@H](CC(C)C)C(=O)N[C@@H](C(C)C)C(=O)N(C)[C@@H](CC(C)C)C(=O)N[C@@H](C)C(=O)N[C@H](C)C(=O)N(C)[C@@H](CC(C)C)C(=O)N(C)[C@@H](CC(C)C)C(=O)N(C)[C@@H](C(C)C)C(=O)N1C`, the half-inhibitory concentration (IC50) in assay [1] worked out at 15 nM; in assay [2], 2.5 nM.

For the molecule `C/C=C/C[C@@H](C)[C@@H](O)[C@H]1C(=O)N[C@@H](CC)C(=O)N(C)[C@H](SCCN2CCCCC2)C(=O)N(C)[C@@H](CC(C)(C)O)C(=O)N[C@@H](C(C)C)C(=O)N(C)[C@@H](CC(C)C)C(=O)N[C@@H](C)C(=O)N[C@H](C)C(=O)N(C)[C@@H](CC(C)C)C(=O)N(C)[C@@H](CC(C)C)C(=O)N(C)[C@@H](C(C)C)C(=O)N1C`, the IC50 was found to be 882 nM in assay [1] and 19.5 nM in assay [2].

Molecule `C/C=C/C[C@@H](C)[C@@H](O)C1C(=O)N[C@@H](CC)C(=O)N(C)CC(=O)N(C)[C@@H](CC(C)(C)O)C(=O)N[C@@H](C(C)C)C(=O)N(C)[C@@H](CC(C)C)C(=O)N[C@@H](C)C(=O)N[C@H](C)C(=O)N(C)[C@@H](CC(C)C)C(=O)N(C)[C@@H](CC(C)C)C(=O)N(C)[C@@H](C(C)C)C(=O)N1C` (stereo not given in full) registered an IC50 in assay [2] of 138 nM.

For `C/C=C/C[C@@H](C)[C@@H](O)[C@H]1C(=O)N[C@@H](CC)C(=O)N(C)[C@H](SCCN(C)C)C(=O)N(C)[C@@H](CC(C)(C)O)C(=O)N[C@@H](C(C)C)C(=O)N(C)[C@@H](CC(C)C)C(=O)N[C@@H](C)C(=O)N[C@H](C)C(=O)N(C)[C@@H](CC(C)C)C(=O)N(C)[C@@H](CC(C)C)C(=O)N(C)[C@@H](C(C)C)C(=O)N1C` [SCY 635], in assay [2], the IC50 was 45 nM.

With `C/C=C/C[C@@H](C)[C@@H](O)[C@H]1C(=O)N[C@@H](CC)C(=O)N(C)[C@H](SCCN(CC)CC)C(=O)N(C)[C@@H](CC(C)(C)O)C(=O)N[C@@H](C(C)C)C(=O)N(C)[C@@H](CC(C)C)C(=O)N[C@@H](C)C(=O)N[C@H](C)C(=O)N(C)[C@@H](CC(C)C)C(=O)N(C)[C@@H](CC(C)C)C(=O)N(C)[C@@H](C(C)C)C(=O)N1C`, the IC50 is 6050 nM in assay [1] and 47 nM in assay [2].

As to `C/C=C/C[C@@H](C)[C@@H](O)[C@H]1C(=O)N[C@@H](CC)C(=O)N(C)[C@H](CO)C(=O)N(C)[C@@H](CC(C)(C)O)C(=O)N[C@@H](C(C)C)C(=O)N(C)[C@@H](CC(C)C)C(=O)N[C@@H](C)C(=O)N[C@H](C)C(=O)N(C)[C@@H](CC(C)C)C(=O)N(C)[C@@H](CC(C)C)C(=O)N(C)[C@@H](C(C)C)C(=O)N1C`, the IC50 in assay [1] amounted to 783 nM.

In the case of `C/C=C/C[C@@H](C)[C@@H](O)[C@H]1C(=O)N[C@@H](CC)C(=O)N(C)[C@H](SCCO)C(=O)N(C)[C@@H](CC(C)C)C(=O)N[C@@H](C(C)C)C(=O)N(C)[C@@H](CC(C)C)C(=O)N[C@@H](C)C(=O)N[C@H](C)C(=O)N(C)[C@@H](CC(C)C)C(=O)N(C)[C@@H](CC(C)C)C(=O)N(C)[C@@H](C(C)C)C(=O)N1C`, the 50% inhibitory concentration (IC50) turned out to be 19 nM in assay [1] and 70 nM in assay [2].

Turning to `C/C=C/C[C@@H](C)[C@@H](O)[C@H]1C(=O)N[C@@H](CC)C(=O)N(C)[C@H](SCCn2ccnc2)C(=O)N(C)[C@@H](CC(C)C)C(=O)N[C@@H](C(C)C)C(=O)N(C)[C@@H](CC(C)C)C(=O)N[C@@H](C)C(=O)N[C@H](C)C(=O)N(C)[C@@H](CC(C)C)C(=O)N(C)[C@@H](CC(C)C)C(=O)N(C)[C@@H](C(C)C)C(=O)N1C`, the half-inhibitory concentration (IC50) in assay [1] came out at 165 nM; in assay [2] it was 80.5 nM.
